Assays:
[1] = healthy volunteers, daily doses of up to 4800 μg (4.8 mg) for 14 days; cited from earlier work
CFTR = molecular target: T1, CFTR (Homo sapiens, UniProt P13569, DEL508-508); test: Flow cytometry, presence of CFTR epitopes on CFBE41o− cells; format: cell-based; conditions: 24 h of treatment, CHF6001 30 nM, Roflumilast 50 nM
T1 construct: cells expressing endogenous ΔF508-CFTR; endogenous in cells; host or cells: CFBE41o− human CF bronchial epithelial cell line (gift from D. C. Gruenert), homozygous ΔF508
Procedure: CFBE41o− cells were seeded 1.5×10^5 cells/well into a 6 multi-well dish in EMEM medium, supplemented with 10% FBS and 1 mM L-glutamine, and maintained in incubator at 37° C. overnight. The day after, the cells were treated with different agents, as follows: VRT809 (5 μM), CHF6001 (30 nM), Roflumilast (50 nM) or the vehicle DMSO. After 24 h cells were harvested.
Specifically for detection of the extracellular domain of CFTR, the cells were washed with PBS 1× and successively stained with the anti-CFTR monoclonal antibody CF3 (Abeam), suitable for detection of the extracellular domain of CFTR. After washing, the secondary antibody goat anti-mouse (μ-chain) conjugated with Alexa Fluor-488 (Invitrogen, Carlsbad, U.S.A.) was added (1 μg for 10^6 cells) for 30 min on ice. […]
Finally cells were washed twice and then analysed at MACSQuant Analyzer (Miltenyi Biotech, Cologne, Germany), and data were analysed with FlowJo Software (Tree Star, Inc).
The percentage of events with background noise (determined with IgM isotype or peptide signal) was subtracted and the result was expressed as %-values of CFTR positive cells. Geometrical means of the signal in the green channel were also obtained and a ratio between the signals obtained with the extracellular-domain specific antibody CF3 and with the polyclonal antibody (Alomone), respectively, with respect to the baseline signal was calculated (MFI). […]

ΔF508 CFTR = molecular target: T2, ΔF508 CFTR (Homo sapiens, UniProt P13569, DEL508-508); test: HS-YFP assay, CFTR potentiator activity in CFBE41o− cells; format: cell-based; conditions: 10 minutes exposure, following CFTR correction by VRT809 (5 μM, 24 h)
T2 construct: cells expressing endogenous ΔF508-CFTR; endogenous in cells; host or cells: CFBE41o− human CF bronchial epithelial cell line (gift from D. C. Gruenert), homozygous ΔF508
Text: The CF human bronchial epithelial cell line (CFBE41o−), homozygous for the ΔF508 mutation of the CFTR protein (Ehrhard et al., 2006, Cell Tissue Res. Vol. 323, p. 405-415; kind gift from D. C. Gruenert, California Pacific Medical Center Research Institute, San Francisco, Calif., USA) and the human bronchial epithelial cell line 16HBE14o−, wildtype (wt) for the CFTR protein (kindly provided by P. Davis, Case Western Reserve University School of Medicine, Cleveland, Ohio, USA) were maintained in EMEM (Lonza) supplemented with 10% FBS and 1% Glutamax (Sigma). […]
The CFTR activity in epithelial cells was evaluated by Yellow Fluorescence Protein (YFP) with a protocol modified from the method published by Averna et al. (PLoS One, 2013, vol. 8, e66089). […]
The potential effect of different agents on the activity of CFTR in CFBE41o− cells was analysed by the HS-YFP assay, combining a short exposure (10 minutes) with agents as follows: CHF6001, Roflumilast or VRT 770 (5 μM), alone or in combination, with a 24 h pre-treatment with the CFTR corrector VRT809 (5 μM). […]

[2] = diarrhea, weight loss, nausea, headache, insomnia and others; cited from earlier work

T1 sequence (P13569 with tags, fused parts or gaps DEL508-508): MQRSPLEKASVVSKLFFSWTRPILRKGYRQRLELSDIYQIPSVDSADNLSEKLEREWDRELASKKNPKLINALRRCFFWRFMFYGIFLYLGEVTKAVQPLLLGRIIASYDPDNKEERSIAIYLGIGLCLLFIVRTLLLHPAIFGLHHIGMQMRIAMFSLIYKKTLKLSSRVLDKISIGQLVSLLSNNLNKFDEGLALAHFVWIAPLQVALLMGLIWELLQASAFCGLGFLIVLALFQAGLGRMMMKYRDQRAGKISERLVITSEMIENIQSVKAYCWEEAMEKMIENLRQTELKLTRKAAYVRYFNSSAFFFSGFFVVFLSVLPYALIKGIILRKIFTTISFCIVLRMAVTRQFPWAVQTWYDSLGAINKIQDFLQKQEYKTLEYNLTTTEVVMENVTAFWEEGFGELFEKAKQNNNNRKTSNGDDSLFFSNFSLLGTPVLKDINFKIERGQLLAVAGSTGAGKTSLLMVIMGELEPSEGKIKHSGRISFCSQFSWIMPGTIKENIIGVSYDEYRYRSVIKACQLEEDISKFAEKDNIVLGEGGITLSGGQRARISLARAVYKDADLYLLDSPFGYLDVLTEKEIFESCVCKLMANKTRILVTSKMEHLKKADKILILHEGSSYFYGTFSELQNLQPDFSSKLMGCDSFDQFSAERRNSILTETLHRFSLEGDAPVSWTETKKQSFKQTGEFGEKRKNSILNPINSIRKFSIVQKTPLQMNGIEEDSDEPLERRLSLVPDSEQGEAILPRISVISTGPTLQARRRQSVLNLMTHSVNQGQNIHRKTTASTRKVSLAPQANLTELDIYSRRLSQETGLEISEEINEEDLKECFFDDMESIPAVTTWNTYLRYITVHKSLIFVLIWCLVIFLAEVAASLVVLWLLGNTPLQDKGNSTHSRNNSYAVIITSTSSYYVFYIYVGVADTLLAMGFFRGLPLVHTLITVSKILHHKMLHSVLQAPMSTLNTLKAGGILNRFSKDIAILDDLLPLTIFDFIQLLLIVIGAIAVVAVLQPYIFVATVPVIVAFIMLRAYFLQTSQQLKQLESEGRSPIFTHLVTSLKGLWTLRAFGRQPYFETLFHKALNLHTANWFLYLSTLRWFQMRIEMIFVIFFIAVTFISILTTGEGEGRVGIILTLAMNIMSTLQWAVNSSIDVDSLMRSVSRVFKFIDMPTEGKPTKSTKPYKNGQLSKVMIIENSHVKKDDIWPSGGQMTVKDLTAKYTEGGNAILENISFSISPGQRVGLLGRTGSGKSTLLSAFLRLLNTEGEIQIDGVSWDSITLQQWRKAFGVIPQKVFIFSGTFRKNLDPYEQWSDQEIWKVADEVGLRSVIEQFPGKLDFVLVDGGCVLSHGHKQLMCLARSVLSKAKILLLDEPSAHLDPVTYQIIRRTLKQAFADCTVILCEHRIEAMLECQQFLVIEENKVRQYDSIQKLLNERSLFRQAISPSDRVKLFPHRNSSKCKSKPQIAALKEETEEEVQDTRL
T2 sequence (P13569 with tags, fused parts or gaps DEL508-508): as above

Row | Compound | safety and tolerability [1] | presence of CFTR epitopes (CF3 extracellular, Alomone intracellular) (CFTR) | CFTR activity (delta fluorescence un-stimulated versus stimulated cells) (ΔF508 CFTR) | frequency of common adverse effects in subjects [2]
1 | CS(=O)(=O)Nc1ccc(C(=O)OC(Cc2c(Cl)c[n+]([O-])cc2Cl)c2ccc(OC(F)F)c(OCC3CC3)c2)cc1OCC1CC1 (centres unmarked) [CHF6001, 3-Cyclopropylmethoxy-4-methanesulfonylamino-benzoic acid 1-(3-cyclopropylmethoxy-4-difluoromethoxy-phenyl)-2-(3,5-dichloro-1-oxy-pyridin-4-yl)-ethyl ester] | Good safety and tolerability | restore the presence of CFTR epitopes | comparable to the reference compound VRT 770 | 
2 | O=C(Nc1c(Cl)cncc1Cl)c1ccc(OC(F)F)c(OCC2CC2)c1 [Roflumilast, 3-cyclo-propylmethoxy-4-difluoromethoxy-N-[3,5-di-chloropyrid-4-yl]-benzamide] |  | restore the presence of CFTR epitopes |  | 1-10%

From patent US20220218678A1, “USE OF 1-PHENYL-2-PYRIDINYL ALKYL ALCOHOL DERIVATIVES FOR TREATING CYSTIC FIBROSIS” (CHIESI FARMACEUTICI S.p.A., priority 2017, published 2022)
